In patent US20100204155A1, “USE OF THE PEPTIDE SFLLR-OH AND MURAMYL DIPEPTIDE AS THERAPEUTIC AGENTS” (priority 2007, published 2010):
Where no end group is shown, it is not given here.

Columns and labels:
HIV-1IIIB = test: HIV-1 antiviral assay in CEM-SS cells (MTS); type: cell-based; conditions: positive controls
HCMV strain AD169 = test: HCMV plaque formation assay in MRC-5 cells; conditions: for inhibition of HCMV plaque formation as compared to the virus control: 10 micrograms per ml, HCMV AD169, 7-10 days
[1] = test system: Primary Human endothelial cells (HUVEC); test: Endothelial cell migration assay; type: cell-based; conditions: 10 micrograms per ml, 22 hours, combination peptide 1:peptide 2 0.95 mole:1.05 mole
Method: Thereafter, designated concentration of testing peptides—10 micrograms per ml—was added in duplicate wells.

IL-4 spleen cells = test: Th1/Th2 cytokine profiling assay: IL-4; type: cell-based; conditions: 10 micrograms per ml; Ovalbumin-restimulated spleen cells of immunized Balb/c mice, 72 hours
Text: (§1) The Balb/c mice (originated in 1923, it is a popular strain and is used in many different research disciplines. Also classified as an inbred from the production of 20 or more successive brother-sister matings, the Balb/c mouse is albino and small in size) were immunized on Days 1, 15, and 29 with Ovalbumin (Ovalbumin is the main protein found in egg white, commonly used to stimulate an immunological reaction in test animals) in PBS (5 micrograms/injection). On day 50, spleens of the mice were harvested (3 weeks after last boost with Ovalbumin). Cells were cultured (2×10^5/well in triplicate) and incubated with culture medium or test peptides—10 micrograms per ml—for 30 min. Thereafter, additional Ovalbumin was added to the cells at 10 micrograms/ml for in vitro restimulation of the cells. 72 hours later, cell supernatants were harvested and assayed using the Becton Dickinson Mouse Th1/Th2 Cytokine CBA Kit.

IL-2 spleen cells = test: Th1/Th2 cytokine profiling assay: IL-2; type: cell-based; conditions: 10 micrograms per ml; Ovalbumin-restimulated spleen cells of immunized Balb/c mice, 72 hours
Text: as §1

TNF-a spleen cells = test: Th1/Th2 cytokine profiling assay: TNF-a; type: cell-based; conditions: 10 micrograms per ml; Ovalbumin-restimulated spleen cells of immunized Balb/c mice, 72 hours
Text: as §1

[2] = test system: hepatitis B virus (HBV) ayw strain; test: HBV assay in HepG2-2.2.15 cells (TaqMan PCR of secreted HBV DNA); type: cell-based; conditions: 10 micrograms per ml, six days, HBV DNA by TaqMan PCR
Text: HepG2-2.2.15 is a stable cell line containing the hepatitis B virus (HBV) ayw strain genome (ATCC Cat. No. CRL-11997). Antiviral compounds blocking any late step of viral replication such as transcription, translation, pregenome encapsidation, reverse transcription, particle assembly and release can be identified and characterized using this cell line. In this assay, an active compound will reduce the production of secreted HBV from cells, measured by utilizing real time quantitative PCR (TaqMan) assay to directly and accurately measure HBV DNA copies.
HepG2-2.2.15 cells were plated in 96-well microtiter plates. After 16-24 hours the confluent monolayer of HepG2-2.2.15 cells was washed and the medium was replaced with complete medium containing test peptides—10 micrograms per ml—in duplicate. […] Six days following the initial administration of the peptides, the cell culture supernatants was collected, treated with pronase and DNAse and then used in a real-time quantitative TaqMan PCR assay. The PCR-amplified HBV DNA was detected in real-time by monitoring increases in fluorescence signals that result from the exonucleolytic degradation of a quenched fluorescence probe molecule that hybridizes to the amplified HBV DNA. […] Antiviral activity was calculated from the reduction in HBV DNA levels (% virus control). […]

IL-5 spleen cells = test: Th1/Th2 cytokine profiling assay: IL-5; type: cell-based; conditions: 10 micrograms per ml; Ovalbumin-restimulated spleen cells of immunized Balb/c mice, 72 hours
Text: as §1

HUVEC = test: Endothelial tube formation assay; type: cell-based, human; conditions: 10 micrograms per ml, 20 hours, combination peptide 1:peptide 2 0.95 mole:1.05 mole
Text: Positive control was vehicle only.

IFNγ spleen cells = test: Th1/Th2 cytokine profiling assay: IFNγ; type: cell-based; conditions: 10 micrograms per ml; Ovalbumin-restimulated spleen cells of immunized Balb/c mice, 72 hours
Text: as §1

Row | Compound | antiviral activity of positive control compounds (HIV-1 assay) (HIV-1IIIB) | antiviral activity of positive control compound (HCMV assay) (HCMV strain AD169; positive control, HCMV AD169) | inhibition of the migration of human endothelial cells [1] | inhibition of HCMV plaque formation as compared to the virus control (HCMV strain AD169) | IL-4 spleen cells; TH2 response (% of control) (IL-4 spleen cells) | IL-2 spleen cells (% of control) (IL-2 spleen cells) | TNF-a spleen cells; TH1 response (% of control) (TNF-a spleen cells) | inhibition of HBV replication as compared to the virus control infection [2] | IL-5 spleen cells; TH2 response (% of control) (IL-5 spleen cells) | inhibition of the tube formation of endothelial cells (HUVEC) | IFNγ spleen cells; TH1 response (% of control) (IFNγ spleen cells)
1 | Cc1cn([C@H]2C[C@H](N=[N+]=[N-])[C@@H](CO)O2)c(=O)[nH]c1=O [AZT] | expected levels of antiviral activity | – | – | – | – | – | – | – | – | – | –
2 | Nc1nc(O)c2ncn(COC(CO)CO)c2n1 [Ganciclovir, reference compound] | – | expected levels of antiviral activity | – | – | – | – | – | – | – | – | –
3 | CC(C)(C)NC(=O)[C@@H]1CN(Cc2cccnc2)CCN1C[C@@H](O)C[C@@H](Cc1ccccc1)C(=O)N[C@H]1c2ccccc2C[C@H]1O [indinavir] | expected levels of antiviral activity | – | – | – | – | – | – | – | – | – | –
4 | Ac-muramyl-Ala-D-Glu-NH2 [Peptide 2] | – | – | did not inhibit | did not inhibit | 94.5 % of control | 0.0 % of control | 134.0 % of control | 54.4% | 71.3 % of control | 27% | 146.7 % of control
5 | Ser-Phe-Leu-Leu-Arg-OH (SFLLR-OH) [Peptide 1] | – | – | 29% | did not inhibit | 0.0 % of control | 55.7 % of control | 121.8 % of control | 39.6% | 55.9 % of control | 12% | 129.1 % of control
